Measurements published in patent US9540391B2, “Isomannide derivatives as inhibitors of soluble epoxide hydrolase” (SANOFI, priority 2013, dated 2017).

Biological target: T1, recombinant sEH (Homo sapiens, UniProt P34913)
T1 construct: made in house; host or cells: Sf9 insect cells
T1 sequence (P34913 1-555): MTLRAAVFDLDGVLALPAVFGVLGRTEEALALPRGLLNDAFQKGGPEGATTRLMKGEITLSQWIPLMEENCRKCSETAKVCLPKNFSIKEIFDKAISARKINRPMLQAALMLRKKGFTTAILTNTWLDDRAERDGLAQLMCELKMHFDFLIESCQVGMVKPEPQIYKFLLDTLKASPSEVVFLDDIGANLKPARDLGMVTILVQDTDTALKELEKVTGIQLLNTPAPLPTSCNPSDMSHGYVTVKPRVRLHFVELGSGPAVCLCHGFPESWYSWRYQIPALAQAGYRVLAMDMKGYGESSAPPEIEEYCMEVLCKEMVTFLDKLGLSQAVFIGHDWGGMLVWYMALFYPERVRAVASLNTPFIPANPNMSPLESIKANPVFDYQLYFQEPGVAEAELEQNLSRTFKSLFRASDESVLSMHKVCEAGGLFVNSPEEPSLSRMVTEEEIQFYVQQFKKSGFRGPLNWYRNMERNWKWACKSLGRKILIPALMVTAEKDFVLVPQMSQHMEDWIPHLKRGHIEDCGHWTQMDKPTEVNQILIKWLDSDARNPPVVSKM
Experiment: biochemical screening assay for inhibition of soluble epoxide hydrolase (fluorometric, Phome substrate)
Summary of the method: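 Human sEH from Sf9 cells (2 nM final) was pre-incubated 15 min at 30 °C with compound (0.0001–10 μM), then reacted 60 min at 30 °C with 5 μM Phome in 25 mM Hepes/0.01% albumin. Fluorescence of released 6-methoxy-2-naphthaldehyde was read before substrate and at end; IC50 from % inhibition.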

SMILES | IC50
Cc1ncccc1O[C@H]1CO[C@H]2[C@@H]1OC[C@@H]2NC(=O)NCc1ccccn1 [Example 172, 1-[(3S,3aR,6S,6aS)-6-(2-Methyl-pyridin-3-yloxy)-hexahydro-furo[3,2-b]furan-3-yl]-3-pyridin-2-ylmethyl-urea] | 1240 nM
COCCCNC(=O)NC1COC2C(Oc3cccnc3C)COC12 [Example 175, 1-(3-Methoxy-propyl)-3-[(3S,3aR,-6S,6aS)-6-(2-methyl-pyridin-3-yl-oxy)-hexahydro-furo[3,2-b]furan-3-yl]-urea] | 975 nM
Cc1ncccc1O[C@H]1CO[C@H]2[C@@H]1OC[C@@H]2NC(=O)NCC1CCCO1 (stereo partly drawn) [Example 176, 1-[(3S,3aR,6S,6aS)-6-(2-Methyl-pyridin-3-yloxy)-hexahydro-furo[3,2-b]furan-3-yl]-3-(tetrahydro-furan-2-ylmethyl)-urea] | 1450 nM
COCC(C)NC(=O)N[C@H]1CO[C@H]2[C@@H]1OC[C@@H]2Oc1cccnc1C (stereo partly drawn) [Example 183, 1-(2-Methoxy-1-methyl-ethyl)-3-[(3S,3aR,6S,6aS)-6-(2-methyl-pyridin-3-yloxy)-hexahydro-furo[3,2-b]furan-3-yl]-urea] | 846 nM
Cc1cnc(CNC(=O)N[C@H]2CO[C@H]3[C@@H]2OC[C@@H]3Oc2cccnc2C)cn1 [Example 190, 1-(5-Methyl-pyrazin-2-ylmethyl)-3-[(3S,3aR,6S,6aS)-6-(2-methyl-pyridin-3-yloxy)-hexahydro-furo[3,2-b]furan-3-yl]-urea] | 475 nM
Cc1ncccc1O[C@H]1CO[C@H]2[C@@H]1OC[C@@H]2NC(=O)NCC1COC(C)(C)O1 (stereo partly drawn) [Example 191, 1-(2,2-Dimethyl-[1,3]dioxolan-4-ylmethyl)-3-[(3S,3aR,6S,6aS)-6-(2-methyl-pyridin-3-yloxy)-hexahydro-furo[3,2-b]furan-3-yl]-urea] | 489 nM
Cc1ncccc1O[C@H]1CO[C@H]2[C@@H]1OC[C@@H]2NC(=O)NCc1cnn(C)c1 [Example 192, 1-(1-Methyl-1H-pyrazol-4-ylmethyl)-3-[(3S,3aR,6S,6aS)-6-(2-methyl-pyridin-3-yloxy)-hexahydro-furo[3,2-b]furan-3-yl]-urea] | 1730 nM
Cc1ncccc1O[C@H]1CO[C@H]2[C@@H]1OC[C@@H]2NC(=O)NCC1COCCO1 (stereo partly drawn) [Example 194, 1-[1,4]Dioxan-2-ylmethyl-3-[(3S,3aR,6S,6aS)-6-(2-methyl-pyridin-3-yloxy)-hexahydro-furo[3,2-b]furan-3-yl]-urea] | 1470 nM
Cc1ncccc1O[C@H]1CO[C@H]2[C@@H]1OC[C@@H]2NC(=O)NC(C)(C)CN1CCOCC1 [Example 197, 1-(1,1-Dimethyl-2-morpholin-4-yl-ethyl)-3-[(3S,3aR,6S,6aS)-6-(2-methyl-pyridin-3-yloxy)-hexahydro-furo[3,2-b]furan-3-yl]-urea] | 1140 nM
Cc1ncccc1O[C@H]1CO[C@H]2[C@@H]1OC[C@@H]2NC(=O)NCc1cn(C)cn1 [Example 198, 1-(1-Methyl-1H-imidazol-4-ylmethyl)-3-[(3S,3aR,6S,6aS)-6-(2-methyl-pyridin-3-yloxy)-hexahydro-furo[3,2-b]furan-3-yl]-urea] | 997 nM
Cc1csc(CNC(=O)N[C@H]2CO[C@H]3[C@@H]2OC[C@@H]3Oc2cccnc2C)n1 [Example 199, 1-[(3S,3aR,6S,6aS)-6-(2-Methyl-pyridin-3-yloxy)-hexahydro-furo[3,2-b]furan-3-yl]-3-(4-methyl-thiazol-2-ylmethyl)-urea] | 2070 nM

The next compounds have a lower IC50 than those just listed; values first:

IC50 | SMILES
5 nM | Cc1ncccc1OC1COC2C(NC(=O)NC3CC4CCC3(C)C4(C)C)COC12 [Example 173, 1-[(2R,3aS,5S,6S)-6-(2-Methyl-pyridin-3-yloxy)-hexahydro-furo[3,2-b]furan-3-yl]-3-((1R,2S,4R)-1,7,7-trimethyl-bicyclo[2.2.1]hept-2-yl)-urea]
31 nM | Cc1ncccc1O[C@H]1CO[C@H]2[C@@H]1OC[C@@H]2NC(=O)N[C@@H]1C[C@H](C)CC[C@H]1C(C)C [Example 174, 1-((1R,2S,5R)-2-Isopropyl-5-methyl-cyclohexyl)-3-[(3S,3aR,6S,6aS)-6-(2-methyl-pyridin-3-yloxy)-hexa-hydro-furo[3,2-b]furan-3-yl]-urea]
456 nM | Cc1ncccc1O[C@H]1CO[C@H]2[C@@H]1OC[C@@H]2NC(=O)NCc1cccnc1 [Example 177, 1-[(3S,3aR,6S,6aS)-6-(2-Methyl-pyridin-3-yloxy)-hexahydro-furo[3,2-b]furan-3-yl]-3-pyridin-3-ylmethyl-urea]
5 nM | Cc1ncccc1O[C@H]1CO[C@H]2[C@@H]1OC[C@@H]2NC(=O)NC[C@H]1C[C@H]2C[C@@H]([C@@H]1C)C2(C)C [Example 178, 1-[(3S,3aR,6S,6aS)-6-(2-Methyl-pyridin-3-yloxy)-hexahydro-furo[3,2-b]furan-3-yl]-3-((1S,2S,3S,5R)-2,6,6-trimethyl-bicyclo[3.1.1]hept-3-ylmethyl)-urea]
< 1 nM | Cc1ncccc1O[C@H]1CO[C@H]2[C@@H]1OC[C@@H]2NC(=O)NCc1ccccc1OC(F)(F)F [Example 179, 1-[(3S,3aR,6S,6aS)-6-(2-Methyl-pyridin-3-yloxy)-hexahydro-furo[3,2-b]furan-3-yl]-3-(2-trifluoromethoxy-benzyl)-urea]
55 nM | Cc1ncccc1OC1COC2C(NC(=O)NCc3ccc(F)cc3)COC12 [Example 180, 1-(4-Fluoro-benzyl)-3-[(3S,3aR,6S,-6aS)-6-(2-methyl-pyridin-3-yloxy)-hexahydro-furo[3,2-b]furan-3-yl]-urea]
1 nM | Cc1ncccc1O[C@H]1CO[C@H]2[C@@H]1OC[C@@H]2NC(=O)N[C@H]1C[C@@H]2CC[C@H]1C2 [Example 181, 1-(1S,2S,4R)-Bicyclo[2.2.1]hept-2-yl-3-[(3S,3aR,6S,6aS)-6-(2-methyl-pyridin-3-yloxy)-hexahydro-furo[3,2-b]furan-3-yl]-urea]
96 nM | Cc1ncccc1O[C@H]1CO[C@H]2[C@@H]1OC[C@@H]2NC(=O)NCC1(O)CCCCC1 [Example 182, 1-(1-Hydroxy-cyclohexylmethyl)-3-[(3S,3aR,6S,6aS)-6-(2-methyl-pyridin-3-yloxy)-hexahydro-furo[3,2-b]furan-3-yl]-urea]
6 nM | Cc1ncccc1O[C@H]1CO[C@H]2[C@@H]1OC[C@@H]2NC(=O)NCC1(c2ccccc2)CCCC1 [Example 184, 1-[(3S,3aR,6S,6aS)-6-(2-Methyl-pyridin-3-yloxy)-hexahydro-furo[3,2-b]furan-3-yl]-3-(1-phenyl-cyclopentylmethyl)-urea]
29 nM | Cc1ncccc1O[C@H]1CO[C@H]2[C@@H]1OC[C@@H]2NC(=O)NC(C)(C)Cc1ccc(F)cc1 [Example 185, 1-[2-(4-Fluoro-phenyl)-1,1-dimethyl-ethyl]-3-[(3S,3aR,6S,6aS)-6-(2-methyl-pyridin-3-yloxy)-hexahydro-furo[3,2-b]furan-3-yl]-urea]
2 nM | Cc1ncccc1O[C@H]1CO[C@H]2[C@@H]1OC[C@@H]2NC(=O)N[C@H]1C[C@H]2C[C@@H]([C@@H]1C)C2(C)C [Example 186, 1-[(3S,3aR,6S,6aS)-6-(2-Methyl-pyridin-3-yloxy)-hexahydro-furo[3,2-b]furan-3-yl]-3-((1S,2S,3S,5R)-2,6,6-trimethyl-bicyclo[3.1.1]hept-3-yl)-urea]
44 nM | Cc1ncccc1O[C@H]1CO[C@H]2[C@@H]1OC[C@@H]2NC(=O)NC(C)c1ccc(S(C)(=O)=O)cc1 (stereo partly drawn) [Example 187, 1-[1-(4-Methanesulfonyl-phenyl)-ethyl]-3-[(3S,3aR,6S,6aS)-6-(2-methyl-pyridin-3-yloxy)-hexahydro-furo[3,2-b]furan-3-yl]-urea]
1 nM | Cc1ncccc1O[C@H]1CO[C@H]2[C@@H]1OC[C@@H]2NC(=O)NCc1ccccc1OC(F)F [Example 188, 1-(2-Difluoromethoxy-benzyl)-3-[(3S,3aR,6S,6aS)-6-(2-methyl-pyridin-3-yloxy)-hexahydro-furo[3,2-b]furan-3-yl]-urea]
23 nM | Cc1ncccc1O[C@H]1CO[C@H]2[C@@H]1OC[C@@H]2NC(=O)NCc1ccc(OC(F)F)cc1 [Example 189, 1-(4-Difluoromethoxy-benzyl)-3-[(3S,3aR,6S,6aS)-6-(2-methyl-pyridin-3-yloxy)-hexahydro-furo[3,2-b]furan-3-yl]-urea]
51 nM | Cc1ncccc1OC1COC2C(NC(=O)NC34CC5CC(CC(O)(C5)C3)C4)COC12 [Example 193, 1-((1R,3S,5R,7S)-3-Hydroxy-adamantan-1-yl)-3-[(3S,3aR,6S,6aS)-6-(2-methyl-pyridin-3-yloxy)-hexahydro-furo[3,2-b]furan-3-yl]-urea]
56 nM | Cc1ncccc1OC1COC2C(NC(=O)NC3C4(C)CCC(C4)C3(C)C)COC12 [Example 195, 1-[(2R,3aS,5S,6S)-6-(2-Methyl-pyridin-3-yloxy)-hexahydro-furo[3,2-b]furan-3-yl]-3-((1S,4R)-1,3,3-tri-methyl-bicyclo[2.2.1]hept-2-yl)-urea]
26 nM | Cc1ncccc1O[C@H]1CO[C@H]2[C@@H]1OC[C@@H]2NC(=O)NCC1COc2ccccc2O1 (stereo partly drawn) [Example 196, 1-(2,3-Dihydro-benzo[1,4]dioxin-2-ylmethyl)-3-[(3S,3aR,6S,6aS)-6-(2-methyl-pyridin-3-yloxy)-hexahydro-furo[3,2-b]furan-3-yl]-urea]
